This note sets out measurements from patent US9522909B2, “Thiazolidinedione derivatives, preparation thereof and use thereof in cancer treatment” (UNIVERSITE DE LORRAINE, priority 2012, dated 2016).

Counter-ions that a name gives are not always drawn.

Series [1] concerns cryopreserved human hepatocytes (primary culture). The series is described as follows: Hepatocyte viability (MTT test) on suspended cryopreserved human hepatocytes. In kind it is cell-based. Particulars: 90 minutes incubation, relative to non treated cells. As to the method: The hepatocyte viability corresponds to the percentage of surviving suspended human hepatocytes after 90 minutes of incubation with the compounds of the invention present at a concentration of […].
Hepatocyte viability was measured for different compounds according to the invention with cryopreserved human hepatocytes (primary culture) suspended and distributed in 96-well plates with a density of 0.1×10^6 cells per well, in a […] culture medium per well (DMEM+gentamycin (50 mg/L)+insulin (4 mg/L)+dexamethasone (1 μM)) in a CO2/air (5%/95%) humidified atmosphere at 37° C. After 30 minutes for attaining equilibrium, […] of culture medium containing the tested compounds (dissolved in DMSO) or of medium only containing DMSO (final concentration of 0.1%) were added with stirring at 900 rpm.
Cytotoxicity is evaluated with an MTT (Thiazolyl Blue Tetrazolium Bromide) test. The tested compounds or the DMSO are left to incubate for 90 minutes, and then 10 μL of MTT at 10 mg/10 mL are added per well for 30 mins. Next, the plates are centrifuged for 10 minutes at 2,000 g, the MTT is removed and some DMSO is added in an amount of 100 μL per well. The plates are gently shaked and then absorbance is measured at 595 nm by means of a spectrophotometric reader of micro-plates. The hepatocyte viability measured here corresponds to the percentage of surviving hepatocytes after 90 minutes of incubation with the compounds tested at a concentration of 100 μM, relatively to non treated cells.
The same tests were conducted for a concentration of compounds at 200 μM.
The tests were conducted in two distinct campaigns. In both cases, troglitazone (K) was used as a reference molecule.
In general terms: Tetrazolium assays rely on reduction of a dye to a coloured formazan, in cell work by metabolically active cells.

Series [2] deals with HepG2. The series is described as follows: Antiproliferative activity (MTS) on HepG2. In kind it is cell-based. As to conditions: Homo sapiens, 72 hours; for inhibition at 10 µM: 10^-5 M, triplicate, read-out: percentage of inhibition of cell growth, HepG2; for IC50: averages of two independent values. Here is the method:
(§1) Antiproliferative activity was measured for different compounds according to the invention by analysis of cytoxicity at 10^−5M on diverse cancer cell lines in DMSO in triplicate. For certain molecules and certain lines, the same procedure was used for determining the IC50 values (the required concentration in μM for inhibiting by half the proliferation of the cells), by conducting cytotoxicity tests at concentrations from 0.005 μM to 100 μM in duplicate. The procedure is the following. The cells of the relevant line are sown in the suitable medium (see Table III) added with L-glutamine, with 10% (v/v) of fetal calf serum, 100 IU of penicillin, 100 μg/mL of streptomycin and 1.5 μg/mL of fungizone and maintained under 5% of CO2 at 37° C. 96-well plates are sown with the required number of cells per well (see Table III) in 200 μL of medium. 24 hours later, the chemical compounds to be investigated, dissolved in DMSO, are added and the media are maintained for 72 hours under these conditions with a set final concentration in DMSO (1%). The controls received an equal volume of DMSO. The number of viable cells is measured at 490 nm with the MTS reagent (Promega, Madison Wis.). The IC50s are calculated as the concentrations of compounds inducing 50% inhibition of cell proliferation.
(§2) Tables IV and V below indicate the percentage of inhibition of cell growth, i.e. the percentage of dead cells after treatment with a compound dose of 10^−5 M. The tests were conducted in triplicate.

Series [3] relates to Mia-PaCa. The series is described as follows: Antiproliferative activity (MTS) on Mia-PaCa. In kind it is cell-based. Particulars: Homo sapiens, MIA PaCa-2, 72 hours; for inhibition at 10 µM: 10^-5 M, triplicate, read-out: percentage of inhibition of cell growth, Mia-PaCa; for IC50: averages of two independent values. As to the method:
as §1, §2

Series [4] has as its system PC3. The series is described as follows: Antiproliferative activity (MTS) on PC3. It is filed as cell-based. Particulars: Homo sapiens, PC-3; 10^-5 M, 72 hours, triplicate; read-out: percentage of inhibition of cell growth, PC3. Here is the method:
as §1, §2

Series [5] concerns MDA231. Nature of the series: Antiproliferative activity (MTS) on MDA231. It is filed as cell-based, human. As to conditions: for inhibition at 10 µM / IC50: Homo sapiens, MDA-MB-231, 72 hours; for inhibition at 10 µM: 10^-5 M, triplicate, read-out: percentage of inhibition of cell growth, MDA231; for IC50: averages of two independent values. Here is the method: as §1, §2
Series [6] concerns MCF7. Nature of the series: Antiproliferative activity (MTS) on MCF7. It is filed as cell-based, human. Particulars: for inhibition at 10 µM / IC50: Homo sapiens, MCF7, 72 hours; for inhibition at 10 µM: 10^-5 M, triplicate, read-out: percentage of inhibition of cell growth, MCF7; for IC50: averages of two independent values. As to the method:
as §1, §2

Series [7] concerns LNCaP. Nature of the series: Antiproliferative activity (MTS) on LNCaP. In kind it is cell-based. Particulars: Homo sapiens, 72 hours; for inhibition at 10 µM: 10^-5 M, triplicate, read-out: percentage of inhibition of cell growth, LNCaP; for IC50: averages of two independent values. Here is the method:
as §1, §2

Series [8] is described as follows: Toxicity test on mice (maximum tolerated dose, intravenous injection). As to conditions: mouse, in vivo; female NMRI mice, intravenous injection into the tail vein, observed two weeks. Here is the method: (§3) A toxicity test was conducted on mice for the molecules D and E. These molecules therefore only differ by the substituted methyl group on thiazolidinedione. As a comparison, the test was also conducted by using Δ2TGZ. These analyses were conducted on female NMRI mice weighing 20-25 g. Groups of three mice were set up: a non-injected control batch, a batch receiving the solvent of the molecules to be tested (water PPI, polyethylene glycol 400, absolute ethanol mixture in proportions 5/3/2), three other batches receiving the molecules to be tested. The compounds were injected into the tail vein of mice anaesthetized beforehand. The animals were weighed before and then 24 hours and 48 hours after intravenous injection of the products at the different tested doses and then they were also weighed three times a week for two weeks. The behavior of the whole of the mice was observed before, and then one hour, two hours and three hours after the intravenous injection and then daily for two weeks. The compounds were first tested at the limit of their solubility.

Series [9] deals with HCT116. Nature of the series: Antiproliferative activity (MTS) on HCT116. It is filed as cell-based. Particulars: Homo sapiens, HCT-116; 10^-5 M, 72 hours, triplicate; read-out: percentage of inhibition of cell growth, HCT116. As to the method:
as §1, §2

In series [10] the test system is MDA435. Nature of the series: Antiproliferative activity (MTS) on MDA435. In kind it is cell-based. Particulars: Homo sapiens, 10^-5 M, 72 hours, triplicate, read-out: percentage of inhibition of cell growth, MDA435. Here is the method:
as §1, §2

Series [11] relates to female NMRI mice. Nature of the series: Toxicity test on mice (maximum tolerated dose, intravenous injection). As to conditions: mouse, in vivo, iv. As to the method:
as §3

The term inhibition denotes the change of the read-out against control, counted positive when it falls. As a reminder, the IC50 is the point on the concentration scale where inhibition reaches its midpoint. A lower IC50 goes with greater potency. The term MTD denotes the largest dose that counted as tolerated. As for `Cc1c(C)c2c(c(C)c1CCCCCCN)CCC(C)(COc1ccc(/C=C3\SC(=O)NC3=O)cc1)O2` (racemic) [E, (±) 5-{4-[6-(6-amino-hexyl)-2,5,7,8-tetramethyl-chroman-2-ylmethoxy]-benzylidene}thiazolidine-2,4-dione trifluoroacetate], the “Hepatocyte viability % (100 μM)” value in series [1] (Table I campaign) is recorded as 83%. Moreover, the “Hepatocyte viability % (200 μM)” value in series [1] (Table I campaign) was 80%. The inhibition at 10 µM in series [2] is 87%; in [3] it was 94%; in [4], 40%; in series [5], 92%; in series [6] it was 97%; in series [7], 53%. The inhibition at 10 µM in [9] was 93%; in [10] it was 65%. Moreover, the half-maximal inhibitory concentration (IC50) amounted to 3.1 µM in [2]; 3.9 µM in [3]; 4.7 µM in [5]; 6.4 µM in series [6]; 5.1 µM in series [7]. Moreover, the MTD at 2 weeks in [8] came to 34 mg/kg.

As to `Cc1c(C)c2c(c(C)c1O)CCC(C)(COc1ccc(C=C3SC(=O)NC3=O)cc1)O2` (centres unmarked) [Δ2TGZ, reference compound], the maximum tolerated dose entry in series [11] is on record as “less than 34 mg/kg”.

Turning to `Cc1c(C)c2c(c(C)c1CCCCCCN)CCC(C)(COc1ccc(/C=C3\SC(=O)N(C)C3=O)cc1)O2` (racemic) [D, (±) 5-{4-[6-(6-amino-hexyl)-2,5,7,8-tetramethyl-chroman-2-ylmethoxy]-benzylidene}-3-methyl-thiazolidine-2,4-dione trifluoroacetate], the “Hepatocyte viability % (100 μM)” value in series [1] (Table I campaign) is on record as 83%. The “Hepatocyte viability % (200 μM)” value in series [1] (Table I campaign) was determined as 83%. For the same compound, the inhibition at 10 µM was 100% in series [2]; 103% in [3]; 92% in series [4]; 101% in series [5]; 101% in [6]; 88% in series [7]. The inhibition at 10 µM in [9] and in [10] was 101% in each case. Further, the IC50 in series [2] turned out to be 7.9 µM; in series [3], 3.2 µM; in [5], 4.6 µM; in [6], 6.9 µM; in series [7], 6.5 µM. This compound also showed an MTD at 2 weeks in series [8] of 65.5 mg/kg.

Take `Cc1c(C)c2c(c(C)c1O)CCC(C)(COc1ccc(/C=C3\SC(=O)N(C)C3=O)cc1)O2` (racemic) [J, (±) 5-[4-(6-Hydroxy-2,5,7,8-tetramethyl-chroman-2-ylmethoxy)-benzylidene]-3-methyl-thiazolidine-2,4-dione]: the “Hepatocyte viability % (100 μM)” value in series [1] (Table II campaign) stood at 120%. Further, the “Hepatocyte viability % (200 μM)” value in series [1] (Table II campaign) was 120%. Moreover, the inhibition at 10 µM worked out at 40% in series [2]; 20% in series [3]; 14% in [4]; 36% in series [5]; 0% in series [6]; 33% in series [7]. In addition, the inhibition at 10 µM was 32% in series [9] and 5% in [10]. The IC50 in series [2] was determined as 20.4 µM; in [3] it was 24.5 µM; in series [5], 4.9 µM; in [6], 52.6 µM; in series [7] it was 17.4 µM. Besides, the “activity on non-hormono-dependent breast cancer cells (MDA-231), in words” value in series [5] was “active”. Moreover, the “activity on hormono-dependent breast cancer cells (MCF-7), in words” value in [6] is “inactive”.
